Measured values reported in patent US7259004B1, “Endophytic streptomycetes from higher plants with biological activity” (Montana State University, priority 2002, dated 2007).

Tested on: M. tuberculosis MDR-P (drug resistant)
Assay: microbe, parasite or virus in culture
Assay type: cell-based, Mycobacterium tuberculosis
Conditions: for IC50 M. tuberculosis MDR-P (drug resistant): 7H11 agar with 10% OADC

CO[C@H]1/C=C/O[C@@]2(C)Oc3c(C)c(O)c4c(O)c(c(/C=N/N5CCN(C)CC5)c(O)c4c3C2=O)NC(=O)/C(C)=C\C=C\[C@H](C)[C@H](O)[C@@H](C)[C@@H](O)[C@@H](C)[C@H](OC(C)=O)[C@@H]1C [Rifampicin, reference compound]
IC50 (Mycobacterium tuberculosis, read-out: IC50 M. tuberculosis MDR-P (drug resistant)): > 150 µg/mL

munumbicin B
IC50 M. tuberculosis MDR-P (drug resistant): 10 micrograms/ml

munumbicin C
IC50 M. tuberculosis MDR-P (drug resistant): >125 micrograms/ml
